Results as given in patent publication US6884808B2, “Heterocycle-containing carboxylic acid derivative and drug containing the same” (Eisai Co. Ltd., priority 1995, dated 2005).

Test system: HL60 cells
Assay: Differentiation and induction effects on HL60 cells (CD11b positive cells, flow cytometry)
Format: cell-based
Details: Homo sapiens, HL-60, 120 h; concentration at which the existing ratio of CD11b positive cells becomes 33%; cultivation for 5 days; read-out: Differentiation and induction effects of HL60 cells ED1/3
Source text: Differentiation and Induction Effects on HL60 Cells
It is known that human-derived promyelocytic leukemia cell strains HL60 differentiate into the corresponding granulocytic cells in the presence of all-trans retinoic acid [Breitman, T. Selonick., S. and Colling, S. Proc. Natl. Acad. Sci., 77, 2936(1980)]. In general, cells after differentiation have come to express specific differentiated antigens on their surface. When the HL60 cells are differentiated into granulocytic cells, CD11b which is a differential antigen between granulocytes and monocytes is expressed on the surface of the cells [Fontana, J A., Reppuci, A. Durham, J P. and Mirand, D. Cancer Res. 46, 2469-2473(1986)]. Effects of the invention compound on the differentiation and induction into granulocyte cells were studied by making use of the above-described phenomenon.
HL60 cells were cultured and kept in RPMI 1640 (a medium formulated by Rosewell Park Memorial Institute) to which 10% bovine fetal serum, 1 mM sodium […], 50 μM β-mercaptoethanol, 100 IU/ml of penicillin and 100 μg/ml of streptomycin had been added.
On each well of a 24-well plate, a 1 ml portion of the suspension containing HL60 in an amount of 1×10^5 […] was seeded. The invention compound was then added thereto at varied concentrations, followed by cultivation for 5 days in a 5% CO2-air incubator. After cultivation, the cells of each well were collected in a test tube, to which an FITC-labeled monoclonal antibody against Cd11b, that is, a granulocyte-monocyte specific antigen was added. The cells were then immobilized with 0.2% paraformaldehyde. The existing ratio of CD11b positive cells in the vial HL60 cell group present in each well was determined using flow cytometry [Miller, L J., Schwarting, R. and Springer, T A. J. Immunol. 137, 2891-2900(1986)]. The existing ratios of CD11b positive cells-of-compounds which will be described below were increased according to the concentration. The concentration at which the existing ratio of the positive cells becomes 33% is defined as ED1/3.

Structure (SMILES)	EC (33% CD11b positive cells) [µM]
CC1(C)CCC(C)(C)c2nc(-c3cc(-c4ccc(C(=O)O)cc4)co3)cnc21 [Compound of Ex. 4, 4-[4-[2-[2-(5,6,7,8-Tetrahydro-5,5,8,8-tetramethylquinoxalyl)]furyl]]benzoic acid]	0.0002
CC1(C)CCC(C)(C)c2nc(-c3cc(-c4ccc(C(=O)O)cc4)no3)cnc21 [Compound of Ex. 23, 4-[3-[5-[2-(5,6,7,8-Tetrahydro-5,5,8,8-tetramethylquinoxalyl)]isoxazolyl]]benzoic acid]	0.0006
CC1=C(/C=C/C(C)=C/C=C/C(C)=C/C(=O)O)C(C)(C)CCC1 [All-trans-retinoic acid, reference compound]	0.0018

Test system: not given
Assay: not given
Details: not given

Structure (SMILES)	melting point
CC(C)n1cc(-c2ccc(C(=O)O)cc2)cc1-c1cnc2c(n1)C(C)(C)CCC2(C)C [Example 33, 4-[4-[2-[2-(5,6,7,8-tetrahydro-5,5,8,8-tetramethylquinoxalyl)]-1-isopropylpyrrolyl]]benzoic acid]	225 to 227 °C
CC1(C)CCC(C)(C)c2nc(-c3cc(-c4ccc(C(=O)O)cc4)cn3Cc3cccnc3)cnc21 [Example 41, 4-[4-[2-[2-(5,6,7,8-tetrahydro-5,5,8,8-tetramethylquinoxalyl)]-1-(3-pyridylmethyl)pyrrolyl]]benzoic acid]	263 to 266 °C
CC1(C)CCC(C)(C)c2nc(-c3ccc(-c4ccc(C(=O)O)cn4)[nH]3)cnc21 [Example 45, 6-[2-[5-[2-(5,6,7,8-Tetrahydro-5,5,8,8-tetramethylquinoxalyl)]pyrrolyl]]nicotinic acid]	278 °C (dec.)
CC(C)c1ncc(-c2ccc(-c3ccc(C(=O)O)cc3)o2)nc1C(C)C [Example 48, 4-[2-[5-[2-(5,6-Diisopropropylpyrazinyl)]furyl]]benzoic acid]	260 to 262 °C
Cc1[nH]c(-c2cnc3c(n2)C(C)(C)CCC3(C)C)cc1-c1ccc(C(=O)O)cc1 [Example 29, 4-[3-[5-[2-(5,6,7,8-Tetrahydro-5,5,8,8-tetramethylquinoxalyl)]-2-methylpyrrolyl]]benzoic acid]	248 to 250 °C
CC1(C)CC(C)(C)c2nc(-c3cc(-c4ccc(C(=O)O)cc4)co3)cnc21 [Example 39, 4-[4-[2-[2-(5,5,7,7-Tetramethylcyclopenta[b]pyrazinyl)]-furyl]]benzoic acid]	250 to 252 °C
CC(C)c1ncc(-c2ccc(-c3ccc(C(=O)O)cc3)s2)nc1C(C)C [Example 46, 4-[2-[5-[2-(5,6,-Diisopropylpyrazinyl)]thienyl]]benzoic acid]	270 to 272 °C
Cc1oc(-c2cnc3c(n2)C(C)(C)CCC3(C)C)cc1-c1ccc(C(=O)O)cc1 [Example 40, 4-[3-[5-[2-(5,6,7,8-Tetrahydro-5,5,8,8-tetramethylquinoxalyl)]-2-methylfuryl]]benzoic acid]	270 to 272 °C
CC1(C)CCC(C)(C)c2nc(C(=O)Nc3ccc(C(=O)O)cc3)cnc21 [Example 88, 4-(5,6,7,8-Tetrahydro-5,5,8,8-tetramethyl-2-quinoxalinecarbamoyl)benzoic acid]	257 to 259 °C
CC1(C)CC(C)(C)c2nc(C(=O)Nc3ccc(C(=O)O)cc3)cnc21 [Example 89, 4-(5,5,7,7-Tetramethyl-2-cyclopenta[b]pyrazinecarbamoyl)benzoic acid]	236 to 238 °C
CC(C)c1nnc(C(=O)Nc2ccc(C(=O)O)cc2)nc1C(C)C [Example 91, 4-(5,6-Diisopropyl-3-[1,2,4]triazinecarbamoyl)benzoic acid]	182 to 184 °C
Cn1c(-c2ccc(C(=O)O)cc2)ccc1-c1cnc2c(n1)C(C)(C)CC2(C)C [Example 50, 4-[2-[5-[2-(5,5,7,7-Tetramethylcyclopenta[b]pyrazinyl)]-1-methylpyrrolyl]]benzoic acid]	218 to 220 °C
Cc1c(-c2ccc(C(=O)O)cc2)cc(-c2cnc3c(n2)C(C)(C)CCC3(C)C)n1C [Example 37]	265 to 267 °C
CC1(C)CC(C)(C)c2nc(-c3ccc(-c4ccc(C(=O)O)cc4)o3)cnc21 [Example 49, 4-[2-[5-[2-(5,5,7,7-Tetramethylcyclopenta[b]pyrazinyl)]-furyl]]benzoic acid]	238 to 240 °C
Cn1cc(-c2ccc(C(=O)O)cc2)cc1-c1cnc2c(n1)C(C)(C)CC2(C)C [Example 35, 4-[4-[2-[2-(5,5,7,7-Tetramethylcyclopenta[b]pyrazinyl)]-1-methylpyrrolyl]]benzoic acid]	250 °C (dec.)
CC(C)c1ncc(-c2cc(-c3ccc(C(=O)O)cc3)co2)nc1C(C)C [Example 38, 4-[4-[2-[2-(5,6-Diisopropylpyrazinyl)]furyl]]benzoic acid]	215 to 218 °C
CC1(C)CC(C)(C)c2nc(-c3ccc(-c4ccc(C(=O)O)cc4)s3)cnc21 [Example 47, 4-[2-[5-[2-(5,5,7,7-Tetramethylcyclopenta[b]pyrazinyl)]-thienyl]]benzoic acid]	275 °C (dec.)
CC1(C)CC(C)(C)c2nc(-c3cc(-c4ccc(C(=O)O)cc4)cs3)cnc21 [Example 31, 4-[4-[2-[2-(5,5,7,7-Tetramethylcyclopenta[b]pyrazinyl)]thienyl]]benzoic acid]	222 °C (dec.)
CC(C)c1ncc(-c2ccc(-c3ccc(C(=O)O)cc3)n2C(C)C)nc1C(C)C [Example 51, 4-[2-[5-[2-(5,6-Diisopropylpyrazinyl)]-1-isopropylpyrrolyl]]benzoic acid]	215 °C (dec.)
CC(C)c1ncc(-c2cc(-c3ccc(C(=O)O)cc3)cs2)nc1C(C)C [Example 30, 4-[4-[2-[2-(5,6-Diisopropylpyrazinyl)]thienyl]]benzoic acid]	226 to 229 °C
O=C(O)c1ccc(NC(=O)c2cnc(C3CCCC3)c(C3CCCC3)n2)cc1 [Example 90, 4-(2,3-Dicyclopentyl-2-pyrazinecarbamoyl)benzoic acid]	248 to 250 °C
CC1(C)CC(C)(C)c2nc(-c3cc(-c4ccc(C(=O)O)cc4)c[nH]3)cnc21 [Example 28, 4-[4-[2-[2-(5,5,7,7-Tetramethylcyclopenta[b]pyrazinyl)]pyrrolyl]]benzoic acid]	145 to 147 °C
CC(C)c1ncc(-c2cc(-c3ccc(C(=O)O)cc3)c[nH]2)nc1C(C)C [Example 27, 4-[4-[2-[2-(5,6-Diisopropylpyrazinyl)]pyrrolyl]]benzoic acid]	245 °C (dec.)
Cc1sc(-c2cnc3c(n2)C(C)(C)CCC3(C)C)cc1-c1ccc(C(=O)O)cc1 [Example 32, 4-[3-[5-[2-(5,6,7,8-Tetrahydro-5,5,8,8-tetramethylquinoxalyl)]-2-methylthienyl]]benzo acid]	215 to 217 °C
CCn1cc(-c2ccc(C(=O)O)cc2)cc1-c1cnc(C(C)C)c(C(C)C)n1 [Example 36, 4-[4-[2-[2-(5,6-Diisopropylpyrazinyl)]-1-ethylpyrrolyl]]benzoic acid]	272 to 274 °C

Biological target: T1, Retinoic acid receptor: RAR (Homo sapiens, UniProt P10276)
T1 construct: using a fraction extracted from the nucleus of HL60; endogenous in cells; host or cells: HL60 cells, nucleus-extracted fraction (0.4 M KCl extract, 100,000 x g supernatant)
T1 sequence (P10276 1-462): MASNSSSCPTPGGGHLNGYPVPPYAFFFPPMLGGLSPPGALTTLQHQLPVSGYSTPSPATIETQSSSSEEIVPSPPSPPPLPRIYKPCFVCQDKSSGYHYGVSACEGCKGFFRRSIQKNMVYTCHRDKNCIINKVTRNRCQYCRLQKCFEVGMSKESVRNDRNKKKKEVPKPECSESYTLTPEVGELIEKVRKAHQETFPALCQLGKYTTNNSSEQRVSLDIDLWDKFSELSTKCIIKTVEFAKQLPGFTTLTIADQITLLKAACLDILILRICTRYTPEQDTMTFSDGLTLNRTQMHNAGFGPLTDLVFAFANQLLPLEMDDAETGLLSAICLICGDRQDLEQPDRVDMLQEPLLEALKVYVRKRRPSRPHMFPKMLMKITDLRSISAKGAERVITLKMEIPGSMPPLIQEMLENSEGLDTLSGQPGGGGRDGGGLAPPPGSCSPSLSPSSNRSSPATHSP
Assay: Receptor binding assay by using human promyelocytic leukemia cells HL60 (nucleus-extracted fraction, 3H-all-trans retinoic acid)
Details: 50% inhibition concentration of 3H-all-trans retinoic acid binding, 4° C. for 16 hours
Method: Receptor binding assay by using human promyelocytic leukemia cells HL60
The nucleus-extracted fraction was prepared as described below.
In 15 ml of Solution A [5 mM sodium phosphate (pH 7.4), 10 mM monothioglycerol, 10% v/v glycerol, 1 mM phenylmethyl sulfonyl fluoride (PMSF), 10 μg/ml of aprotinin and 25 μg/ml of leupeptin], HL60 cells (5×10^8) were suspended. The resulting suspension was homogenized, followed by centrifugal separation to remove the supernatant. The precipitate so obtained was suspended in 15 ml of Solution B [10 mM tris-HCl (Tris-HCl) (pH 8.5), 10 mM monothioglycerol, 10% (v/v) glycerol, 1 mM PMSF, 10 μg/ml aprotinin, 25 μg/ml leupeptin and 0.4 M KC1]. After being allowed to stand at 4° C. for one hour, the resulting suspension was subjected to ultracentrifugation at 100,000 xg and 4° C. for one hour.
Receptor binding assay was carried out as follows:
The resulting mixture was allowed to stand at 4° C. for 16 hours. […] The count of the supernatant was determined by a scintillation counter.

Structure (SMILES)	IC50 [nM]
CC1(C)CCC(C)(C)c2nc(-c3cc(-c4ccc(C(=O)O)cc4)co3)cnc21 [Compound of Ex. 4, 4-[4-[2-[2-(5,6,7,8-Tetrahydro-5,5,8,8-tetramethylquinoxalyl)]furyl]]benzoic acid]	7.2
CC1(C)CCC(C)(C)c2nc(-c3cc(-c4ccc(C(=O)O)cc4)no3)cnc21 [Compound of Ex. 23, 4-[3-[5-[2-(5,6,7,8-Tetrahydro-5,5,8,8-tetramethylquinoxalyl)]isoxazolyl]]benzoic acid]	11
